The text below walks through data of ChEMBL document CHEMBL1833973, “Biological evaluation and docking studies of natural isocoumarins as inhibitors for human kallikrein 5 and 7” (Bioorg Med Chem Lett, 2011).

Experiment [1] has as its target T1, Kallikrein-5 (Homo sapiens, UniProt Q9Y337).
T1 sequence (Q9Y337 whole entry): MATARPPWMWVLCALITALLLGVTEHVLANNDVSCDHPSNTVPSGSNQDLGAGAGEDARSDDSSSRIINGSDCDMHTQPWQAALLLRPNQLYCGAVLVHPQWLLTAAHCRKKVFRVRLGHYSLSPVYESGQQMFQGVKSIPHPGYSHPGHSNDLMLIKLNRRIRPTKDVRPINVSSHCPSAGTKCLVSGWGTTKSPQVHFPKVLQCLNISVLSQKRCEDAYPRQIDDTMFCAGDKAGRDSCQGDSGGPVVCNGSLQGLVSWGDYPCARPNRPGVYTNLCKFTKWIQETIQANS
The experiment in a line: Inhibition of human kallikrein 5 using Abz-KLRSSKQ-EDDnp as substrate by spectrofluorimetric assay.

The target of experiment [2] is T1, Kallikrein-5. The experiment in a line: Inhibition of human kallikrein 5 using Abz-KLRSSKQ-EDDnp as substrate by Lineweaver-Burk plot analysis.
For experiment [3], the target named is T2, Kallikrein-7 (Homo sapiens, UniProt P49862). The experiment in a line: Inhibition of human kallikrein 7 using Abz-KLYSSKQ-EDDnp as substrate by spectrofluorimetric assay.
Target sequence in this assay (P49862 whole entry): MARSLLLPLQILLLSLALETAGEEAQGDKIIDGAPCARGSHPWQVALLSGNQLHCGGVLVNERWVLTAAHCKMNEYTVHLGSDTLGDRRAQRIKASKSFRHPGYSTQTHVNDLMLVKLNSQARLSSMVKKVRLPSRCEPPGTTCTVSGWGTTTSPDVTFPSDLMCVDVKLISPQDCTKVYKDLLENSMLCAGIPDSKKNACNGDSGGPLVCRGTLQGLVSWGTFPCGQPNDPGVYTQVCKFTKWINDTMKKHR
In experiment [4] the target is T2, Kallikrein-7. The experiment can be described thus: Inhibition of human kallikrein 7 using Abz-KLYSSKQ-EDDnp as substrate by Lineweaver-Burk plot analysis.
Target sequence in this assay (P49862 whole entry): as above
The target of experiment [5] is T2, Kallikrein-7. The experiment can be described thus: Competitive inhibition of human kallikrein 7 using Abz-KLYSSKQ-EDDnp as substrate by Lineweaver-Burk plot analysis.
Target sequence in this assay (P49862 30-253 limits assumed): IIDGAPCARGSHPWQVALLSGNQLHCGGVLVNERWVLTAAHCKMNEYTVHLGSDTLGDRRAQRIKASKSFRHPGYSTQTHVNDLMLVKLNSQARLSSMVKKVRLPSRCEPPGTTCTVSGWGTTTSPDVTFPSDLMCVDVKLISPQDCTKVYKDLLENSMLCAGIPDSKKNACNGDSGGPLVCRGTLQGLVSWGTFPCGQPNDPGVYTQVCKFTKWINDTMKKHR

pIC50, pKi: −log10 of the molar value. Activity calls are given as the source filed them. The calls are words filed in the database; no cut-off is given here.

Broadly, the pIC50 is the negative decadic logarithm of the IC50, by convention in mol/L. High values mean a low IC50, low ones a high IC50. Broadly, the pKi is the negative decadic logarithm of the Ki, by convention in mol/L. Higher therefore signals a low Ki.

Take `COc1cc2cc3c(c(O)c2c(O)c1-c1c(OC)cc2cc4c(c(O)c2c1O)C(=O)O[C@H](C)C4)C(=O)O[C@H](C)C3` [VIOXANTHIN]: the pIC50 against Kallikrein-5 [1] is 4.27; on Kallikrein-7 [3], 3.87. The pKi on Kallikrein-5 [2] is 4.64; on Kallikrein-7 [4], 4.43.
Consider `COc1cc2c(OC)c3cc(C)oc(=O)c3c(O)c2c(O)c1-c1c(OC)cc2c(OC)c3cc(C)oc(=O)c3c(O)c2c1O`, for which the pIC50 is 4.14 at Kallikrein-5 [1] and 3.95 against Kallikrein-7 [3]. Moreover, the negative logarithm of the Ki (pKi) at Kallikrein-5 [2] is 4.61; on Kallikrein-7 [4], 4.91. At Kallikrein-7 [5], the inhibition result was “Active”.
For the compound `COc1cc(O)c2c(O)c3c(=O)oc(C)cc3c(OC)c2c1` [PAEPALANTINE], the negative-log IC50 (pIC50) is 3.43 against Kallikrein-5 [1] and 3.78 at Kallikrein-7 [3]. In addition, the negative-log Ki (pKi) on Kallikrein-5 [2] was 4.32; at Kallikrein-7 [4], 4.15.
